Source: patent US5015628A, “Anticariogenic phosphopeptides” (The University of Melbourne, priority 1986, dated 1991)
Where a SMILES comes first, the peptide text is derived from it. [ ]: non-standard residue; d: D form. pS = N[C@@H](COP(=O)(O)O)C(=O)O

Assay: Intra-Oral Caries Test (Test 2)
Format: in vivo
Conditions: plaque exposed twice a day to the peptide T1 solution
Description: The anticariogenicity of phosphopeptide T1 was determined using a modification of the intra-oral caries test of Koulourides and Ostrom (Caries Res. 10:442-482, 1976). Enamel slabs were inset in a removable intra-oral appliance to simulate an approximal area. This was done on both sides of the removable appliance (left and right). The appliance was worn to allow plaque accumulation in the simulated approximal areas. Eight times a day the appliance was removed and placed in a solution at 37° C. The solution was 2% w/v sucrose, 2% w/v glucose, 140 mM KCl, 20 mM NaCl at pH 7.0. Twice a day the right side enamel slabs received exposure to a solution containing 1.8% w/v calcium phosphate T1 in 140 mM KCl, 20 mM NaCl at pH 7.0, while the left side received only the salt solution. At the completion of the experiment the enamel slabs were removed, sectioned and subjected to microradiography and microhardness testing. […] The results were confirmed by microhardness analysis. Plaque was also taken from both sides of the appliance and analysed for calcium phosphate, serine phosphate and peptide T1 using a competitive, quantitative, enzyme-linked immunosorbent assay (ELISA) utilising monoclonal antipeptide T1 antibodies.

CC[C@H](C)[C@H](NC(=O)[C@H](COP(=O)(O)O)NC(=O)[C@H](CCC(=O)O)NC(=O)[C@H](C)NC(=O)[C@H](CCC(=O)O)NC(=O)[C@H](CCSC)NC(=O)[C@@H](N)CCC(=O)O)C(=O)N[C@@H](COP(=O)(O)O)C(=O)N[C@@H](COP(=O)(O)O)C(=O)N[C@@H](COP(=O)(O)O)C(=O)N[C@@H](CCC(=O)O)C(=O)N[C@@H](CCC(=O)O)C(=O)N[C@H](C(=O)N[C@H](C(=O)N1CCC[C@H]1C(=O)N[C@@H](CC(N)=O)C(=O)N[C@@H](COP(=O)(O)O)C(=O)N[C@H](C(=O)N[C@@H](CCC(=O)O)C(=O)N[C@@H](CCC(N)=O)C(=O)N[C@@H](CCCCN)C(=O)O)C(C)C)C(C)C)[C@@H](C)CC [T1, Glu-Met-Glu-Ala-Glu-Pse-Ile-Pse-Pse-Pse-Glu-Glu-Ile-Val-Pro-Asn-Pse-Val-Glu-Gln-Lys] (H-EMEAE[pS]I[pS][pS][pS]EEIVPN[pS]VEQK-OH)
level of peptide in plaque (ELISA): at least 0.4 % w/wet wt of plaque
